In the NIST ThermoML archive (doi:10.1016/j.tca.2016.03.016):
Numbers after ± are expanded uncertainties.

Columns and labels:
[1] = Molar enthalpy of transition or fusion; details: DSC

Normal melting temperature (Crystal 1, DTA): 128.50 ± 1.1 °C | Triple point temperature (Crystal 2, DSC): 314.95 ± 1.2 K | Molar enthalpy of transition or fusion ([1]; Crystal 1): 0.951 ± 0.0526 kcal/mol | Molar enthalpy of transition or fusion ([1]; Crystal 2): 2.65 ± 0.124 kcal/mol
SMILES: CC(C)(CO)CO [2,2-dimethyl-1,3-propanediol]
